Where a name gives a salt, the structure may show the parent alone.
Assays:
[1] = molecular target: T1, Adrenergic β2 (Homo sapiens, UniProt P07550); assay: Adrenergic β2 mediated cAMP production in H292 cells (AlphaScreen), concentration response; format: cell-based; conditions: for EC50: 60 min, 300 μM rolipram, read-out: β2 pEC50 (converted); for β2 Intrinsic Activity: fraction relative to the maximum activity determined for formoterol
T1 construct: Adherent H292 cells are removed from tissue culture flasks by treatment with Accutase™ cell detachment solution; endogenous in cells; host or cells: H292 cells
T1 sequence (P07550 whole entry): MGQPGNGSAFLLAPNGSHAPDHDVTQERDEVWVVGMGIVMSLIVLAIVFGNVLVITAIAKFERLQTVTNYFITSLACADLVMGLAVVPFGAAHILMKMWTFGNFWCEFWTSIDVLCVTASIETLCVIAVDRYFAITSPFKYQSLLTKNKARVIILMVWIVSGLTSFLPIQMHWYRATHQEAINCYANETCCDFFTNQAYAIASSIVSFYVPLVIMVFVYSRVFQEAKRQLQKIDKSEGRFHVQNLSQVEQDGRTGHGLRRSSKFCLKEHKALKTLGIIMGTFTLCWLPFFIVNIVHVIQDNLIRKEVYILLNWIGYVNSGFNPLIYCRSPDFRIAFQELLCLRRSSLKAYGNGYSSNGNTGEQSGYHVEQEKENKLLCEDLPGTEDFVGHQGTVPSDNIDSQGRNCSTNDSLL
Outline: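 H292 cells seeded overnight, pretreated 10 min with rolipram (300 μM final), then exposed to compounds 60 min at room temperature in HBSS/10 mM HEPES pH 7.4/5 mM glucose, 1% DMSO. Lysate cAMP quantified by AlphaScreen against a standard curve; four-parameter fit gives pEC50 and intrinsic activity relative to formoterol maximum.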

[2] = molecular target: T2, human muscarinic acetylcholine M3 receptor (Homo sapiens, UniProt P20309); assay: Muscarinic 3 receptor binding assay ([3H]NMS competition, SPA), pIC50; conditions: [3H]NMS 0.1 nM, CHO-K1 cell membranes expressing human M3 receptor
T2 construct: expressed in transfected cells; host or cells: CHO-K1 (Chinese Hamster Ovary) cell membranes
T2 sequence (P20309 whole entry): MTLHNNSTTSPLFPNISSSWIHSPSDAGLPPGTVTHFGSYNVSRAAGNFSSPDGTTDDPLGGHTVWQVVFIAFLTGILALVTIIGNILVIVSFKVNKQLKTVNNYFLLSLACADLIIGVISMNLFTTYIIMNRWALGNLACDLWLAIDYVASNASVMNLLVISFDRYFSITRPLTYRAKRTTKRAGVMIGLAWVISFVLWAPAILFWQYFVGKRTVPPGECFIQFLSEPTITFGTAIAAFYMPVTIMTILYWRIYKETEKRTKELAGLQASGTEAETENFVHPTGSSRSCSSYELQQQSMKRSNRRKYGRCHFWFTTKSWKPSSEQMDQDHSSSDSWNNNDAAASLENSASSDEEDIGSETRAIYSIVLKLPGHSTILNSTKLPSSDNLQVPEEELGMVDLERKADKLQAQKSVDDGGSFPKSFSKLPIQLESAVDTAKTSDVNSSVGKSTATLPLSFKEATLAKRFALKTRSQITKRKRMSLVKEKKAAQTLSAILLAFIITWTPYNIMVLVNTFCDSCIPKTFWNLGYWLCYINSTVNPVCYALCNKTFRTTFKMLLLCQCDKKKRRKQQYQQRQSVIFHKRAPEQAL
Outline: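 Competition of [3H]NMS (0.1 nM, quarter Kd) binding to CHO-K1 membranes expressing human M3, SPA format, in 20 mM HEPES pH 7.4, 5 mM MgCl2, 0.1% BSA, 1% DMSO. Incubated 16 h at room temperature; non-specific binding with 1 μM atropine; pIC50 from specific binding.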

SMILES | EC50 [1] | IC50 [2] | β2 Intrinsic Activity [1]
CCCCN(CCNCCc1ccc(O)c2c1OCC(=O)N2)C(=O)CCOCCc1cccc(CCN2CCC3(CC2)CN(C(=O)c2csc(C(C)C)n2)CCO3)c1 [Example 34a, N-Butyl-N-(2-(2-(5-hydroxy-3-oxo-3,4-dihydro-2H-benzo[b][1,4]oxazin-8-yl)ethylamino)ethyl)-3-(3-(2-(4-(2-isopropylthiazole-4-carbonyl)-1-oxa-4,9-diazaspiro[5.5]undecan-9-yl)ethyl)phenethoxy)propanamide Sulphate salt Modification A] | 15.8 nM | 0.631 nM | –
CCCCN(CCNCCc1ccc(O)c2c1OCC(=O)N2)C(=O)CCOCCc1cccc(CN2CCC3(CC2)CN(C(=O)c2csc(CC)n2)CCO3)c1Cl [Example 32, N-Butyl-3-(2-chloro-3-((4-(2-ethylthiazole-4-carbonyl)-1-oxa-4,9-diazaspiro[5.5]undecan-9-yl)methyl)phenethoxy)-N-(2-(2-(5-hydroxy-3-oxo-3,4-dihydro-2H-benzo[b][1,4]oxazin-8-yl)ethylamino)ethyl)propanamide ditrifluoroacetate] | 15.8 nM | 0.398 nM | 0.9
CCN(CCNCCc1ccc(O)c2[nH]c(=O)sc12)C(=O)CCOCCc1ccc(F)c(CN2CCC3(CC2)CN(C(=O)c2csc(C(C)C)n2)CCO3)c1 [Example 44, N-Ethyl-3-(4-fluoro-3-((4-(2-isopropylthiazole-4-carbonyl)-1-oxa-4,9-diazaspiro[5.5]undecan-9-yl)methyl)phenethoxy)-N-(2-(2-(4-hydroxy-2-oxo-2,3-dihydrobenzo[d]thiazol-7-yl)ethylamino)ethyl)propanamide] | 501 nM | 0.501 nM | 1.1
CC(C)c1nc(C(=O)N2CCOC3(CCN(CCc4cccc(CCOCCC(=O)N(CCNCCc5ccc(O)c6c5OCC(=O)N6)C5CCCCC5)c4)CC3)C2)cs1 [Example 36, N-Cyclohexyl-N-(2-(2-(5-hydroxy-3-oxo-3,4-dihydro-2H-benzo[b][1,4]oxazin-8-yl)ethylamino)ethyl)-3-(3-(2-(4-(2-isopropylthiazole-4-carbonyl)-1-oxa-4,9-diazaspiro[5.5]undecan-9-yl)ethyl)phenethoxy)propanamide ditrifluoroacetate] | 12.6 nM | 2.51 nM | 1.0
CCC(CC)c1nc(C(=O)N2CCOC3(CCN(Cc4cccc(CCOCCC(=O)N(CC)CCNCCc5ccc(O)c6c5OCC(=O)N6)c4F)CC3)C2)cs1 [Example 9, N-Ethyl-3-(2-fluoro-3-((4-(2-(pentan-3-yl)thiazole-4-carbonyl)-1-oxa-4,9-diazaspiro[5.5]undecan-9-yl)methyl)phenethoxy)-N-(2-(2-(5-hydroxy-3-oxo-3,4-dihydro-2H-benzo[b][1,4]oxazin-8-yl)ethylamino)ethyl)propanamide ditrifluoroacetate] | 31.6 nM | 0.501 nM | 0.8
Cc1nc(C(=O)N2CCOC3(CCN(CCc4ccc(CCOCCC(=O)N(CCNCCc5ccc(O)c6c5OCC(=O)N6)C5CCCCCC5)cc4)CC3)C2)cs1 [Example 5, N-Cycloheptyl-N-(2-(2-(5-hydroxy-3-oxo-3,4-dihydro-2H-benzo[b][1,4]oxazin-8-yl)ethylamino)ethyl)-3-(4-(2-(4-(2-methylthiazole-4-carbonyl)-1-oxa-4,9-diazaspiro[5.5]undecan-9-yl)ethyl)phenethoxy)propanamide ditrifluoroacetate] | 20 nM | 0.2 nM | 0.9
CC(C)c1nc(C(=O)N2CCOC3(CCN(Cc4cccc(CCOCCC(=O)N(CCNCCc5ccc(O)c6c5OCC(=O)N6)CCC(F)(F)F)c4F)CC3)C2)cs1 [Example 20, 3-(2-Fluoro-3-((4-(2-isopropylthiazole-4-carbonyl)-1-oxa-4,9-diazaspiro[5.5]undecan-9-yl)methyl)phenethoxy)-N-(2-(2-(5-hydroxy-3-oxo-3,4-dihydro-2H-benzo[b][1,4]oxazin-8-yl)ethylamino)ethyl)-N-(3,3,3-trifluoropropyl)propanamide ditrifluoroacetate] | 79.4 nM | 0.2 nM | 1.1

Now from value to molecule:

EC50 [1] | IC50 [2] | β2 Intrinsic Activity [1] | SMILES
63.1 nM | 0.501 nM | 1.0 | CCCCN(CCNCCc1ccc(O)c2c1OCC(=O)N2)C(=O)CCOCCc1cc(C)cc(CN2CCC3(CC2)CN(C(=O)c2csc(C(C)C)n2)CCO3)c1 [Example 65, N-Butyl-N-(2-(2-(5-hydroxy-3-oxo-3,4-dihydro-2H-benzo[b][1,4]oxazin-8-yl)ethylamino)ethyl)-3-(3-((4-(2-isopropylthiazole-4-carbonyl)-1-oxa-4,9-diazaspiro[5.5]undecan-9-yl)methyl)-5-methylphenethoxy)propanamide ditrifluoroacetate]
251 nM | 0.2 nM | 1.1 | CCCc1cc(C(=O)N2CCOC3(CCN(Cc4cccc(CCOCCC(=O)N(CCNCCc5ccc(O)c6c5OCC(=O)N6)C5CCCCC5)c4)CC3)C2)cs1 [Example 93, N-Cyclohexyl-N-(2-(2-(5-hydroxy-3-oxo-3,4-dihydro-2H-benzo[b][1,4]oxazin-8-yl)ethylamino)ethyl)-3-(3-((4-(5-propylthiophene-3-carbonyl)-1-oxa-4,9-diazaspiro[5.5]undecan-9-yl)methyl)phenethoxy)propanamide]
50.1 nM | 0.501 nM | 0.9 | CCc1nc(C(=O)N2CCOC3(CCN(CCc4ccc(CCOCCC(=O)N(CCCCCO)CCNCCc5ccc(O)c6[nH]c(=O)sc56)cc4)CC3)C2)cs1 [Example 75, 3-(4-(2-(4-(2-Ethylthiazole-4-carbonyl)-1-oxa-4,9-diazaspiro[5.5]undecan-9-yl)ethyl)phenethoxy)-N-(2-(2-(4-hydroxy-2-oxo-2,3-dihydrobenzo[d]thiazol-7-yl)ethylamino)ethyl)-N-(5-hydroxypentyl)propanamide diformate]
251 nM | 1.26 nM | 1.1 | O=C1COc2c(CCNCCN(C(=O)CCOCCc3cccc(CN4CCC5(CC4)CN(C(=O)c4ccc6sccc6c4)CCO5)c3)C3CCCCC3)ccc(O)c2N1 [Example 92, 3-(3-((4-(Benzo[b]thiophene-5-carbonyl)-1-oxa-4,9-diazaspiro[5.5]undecan-9-yl)methyl)phenethoxy)-N-cyclohexyl-N-(2-(2-(5-hydroxy-3-oxo-3,4-dihydro-2H-benzo[b][1,4]oxazin-8-yl)ethylamino)ethyl)propanamide]
251 nM | 0.316 nM | 1.1 | CCc1ccc(C(=O)N2CCOC3(CCN(Cc4cccc(CCOCCC(=O)N(CCNCCc5ccc(O)c6c5OCC(=O)N6)C5CCCCC5)c4)CC3)C2)s1 [Example 83, N-Cyclohexyl-3-(3-((4-(5-ethylthiophene-2-carbonyl)-1-oxa-4,9-diazaspiro[5.5]undecan-9-yl)methyl)phenethoxy)-N-(2-(2-(5-hydroxy-3-oxo-3,4-dihydro-2H-benzo[b][1,4]oxazin-8-yl)ethylamino)ethyl)propanamide]
251 nM | 0.501 nM | 1.0 | CC(C)c1ccc(C(=O)N2CCOC3(CCN(Cc4cccc(CCOCCC(=O)N(CCNCCc5ccc(O)c6c5OCC(=O)N6)C5CCCCC5)c4)CC3)C2)s1 [Example 90, N-Cyclohexyl-N-(2-(2-(5-hydroxy-3-oxo-3,4-dihydro-2H-benzo[b][1,4]oxazin-8-yl)ethylamino)ethyl)-3-(3-((4-(5-isopropylthiophene-2-carbonyl)-1-oxa-4,9-diazaspiro[5.5]undecan-9-yl)methyl)phenethoxy)propanamide]
251 nM | 0.2 nM | 1.2 | CC(C)c1cc(C(=O)N2CCOC3(CCN(Cc4cccc(CCOCCC(=O)N(CCNCCc5ccc(O)c6c5OCC(=O)N6)C5CCCCC5)c4)CC3)C2)cs1 [Example 91, N-Cyclohexyl-N-(2-(2-(5-hydroxy-3-oxo-3,4-dihydro-2H-benzo[b][1,4]oxazin-8-yl)ethylamino)ethyl)-3-(3-((4-(5-isopropylthiophene-3-carbonyl)-1-oxa-4,9-diazaspiro[5.5]undecan-9-yl)methyl)phenethoxy)propanamide]
200 nM | 0.2 nM | 1.0 | O=C1COc2c(CCNCCN(C(=O)CCOCCc3cccc(CN4CCC5(CC4)CN(C(=O)c4csc(C6CCCC6)n4)CCO5)c3)C3CCCCC3)ccc(O)c2N1 [Example 88, N-Cyclohexyl-3-(3-((4-(2-cyclopentylthiazole-4-carbonyl)-1-oxa-4,9-diazaspiro[5.5]undecan-9-yl)methyl)phenethoxy)-N-(2-(2-(5-hydroxy-3-oxo-3,4-dihydro-2H-benzo[b][1,4]oxazin-8-yl)ethylamino)ethyl)propanamide]
31.6 nM | 0.251 nM | 0.8 | CCN(CCNCCc1ccc(O)c2c1OCC(=O)N2)C(=O)CCOCCc1cccc(CN2CCC3(CC2)CN(C(=O)c2csc(CC(C)C)n2)CCO3)c1F [Example 69, N-Ethyl-3-(2-fluoro-3-((4-(2-isobutylthiazole-4-carbonyl)-1-oxa-4,9-diazaspiro[5.5]undecan-9-yl)methyl)phenethoxy)-N-(2-(2-(5-hydroxy-3-oxo-3,4-dihydro-2H-benzo[b][1,4]oxazin-8-yl)ethylamino)ethyl)propanamide ditrifluoroacetate]

— patent publication US8476265B2, “Compounds-801” (AstraZeneca AB, priority 2010, dated 2013)
